In paper PMC10997755, “Discovery of a small-molecule inhibitor that traps Polθ on DNA and synergizes with PARP inhibitors” (Nature Communications, 2024):
Values joined by “and” are separate entries in the source; they are usually repeats but may differ in a detail not shown here. Equal entries are not always repeated.

Key:
DLD1 BRCA2 -/- cells = experiment: γ-H2AX immunofluorescence; format: cell-based
Procedure: (§1) Cells were plated on six well plates with glass-coverslips and treated with RTX-161 day after plating. Four days after treatment, cells were fixed with 4% (v/v) paraformaldehyde for 20 min at 4 °C, washed with PBS, permeabilized with 0.5% (v/v) Triton X for 10 min and blocked with PBS containing 3% BSA. Cells were incubated with primary antibody overnight at 4 °C followed by 3x washes with PBS and then 1 h incubation with secondary antibody. The incubations were performed in the dark in a humidified chamber. After 3x washing in PBS for 3 min, slides were mounted in 20 ul Prolong antifade with DAPI (LifeTechnologies) to counterstain the nuclei. Cells were visualized and imaged using Nikon A1R Confocal microscope at a 63X objective magnification, and images were analyzed using ImageJ software. For quantification, >50 cells were counted for all conditions from three independent experiments. The primary antibody used for IF was rabbit anti-gamma H2AX [p Ser139] antibody (Bethyl Lab #A700-053) 1:500 dilution in 1% BSA in PBS. The secondary antibody was Goat anti-Rabbit IgG (H + L) Secondary Antibody, DyLight 488 (Thermo #35552) 1:2000 dilution in 1% BSA in PBS.

DLD1 Parental cells = experiment: γ-H2AX immunofluorescence; format: cell-based; conditions: DLD1-BRCA2-WT, 5 microM
Procedure: as §1

Brca1-WT MEFs = experiment: Clonogenic assay; format: cell-based, mouse; conditions: for pooled Average (normalized) / Normalized: MEF WT; for pooled Average (normalized): pooled average of 3 experiments; for Normalized: single experiments 1-3, 0 micro M = 100; for survival relative to 0 uM / survival relative to 0 uM, mean of the four experiments: WT; for survival relative to 0 uM: experiments 2023-04-07 and 2023-04-13; for survival relative to 0 uM, mean of the four experiments: last block without head (mean of 4)
Procedure: (§2) Cells were plated on six or twelve or twenty-four well plates. In six well plate, 1000 cells/ well of BRCA2 -/-, BRCA1 -/-, PALB2 mut and 500 cells/ well of wildtype pair was plated; In twelve well plate, 600 cells/ well of BRCA2 -/-, BRCA1 -/-, PALB2 mut and 400 cells/ well of wildtype pair was plated; In twenty-four well plate, 500 cells/ well of BRCA2 -/-, BRCA1 -/-, PALB2 mut and 300 cells/ well of wildtype pair was plated. […] The medium was replaced every 2 days until the colonies were ready for staining in 10–12 days. For staining: Medium was removed from plates, and cells were rinsed with PBS. Fixation was carried out with—Water: Ethanol: Acetic acid (5:4:1) for 30 min followed by staining of colonies with 0.5% crystal violet in Water: Ethanol (3:2) for 2 h at room temperature. The plates were rinsed with water and left for drying overnight at room temperature. Colonies were then counted and IC50 was calculated using results from 3 or more independent experiments. Response curves are shown as mean colony formation +/- S.E.M.

Brca1^CC/CC MEFs = experiment: Clonogenic assay; format: cell-based, mouse; conditions: for pooled Average (normalized) / Normalized: MEF CC; for pooled Average (normalized): pooled average of 3 experiments; for Normalized: single experiments 1-3, 0 micro M = 100; for survival relative to 0 uM / survival relative to 0 uM, mean of the four experiments: cc; for survival relative to 0 uM: 150 cells/well, experiments 2023-04-07 and 2023-04-13; for survival relative to 0 uM, mean of the four experiments: last block without head (mean of 4)
Procedure: as §2

[1] = Clonogenic assay, OLA with or without RTX-161 (Fig. 2 a; cell line not given); format: cell-based; conditions: OLA 0, single experiments, relative to vehicle
[2] = test system: Brca1^CC/CC;Polq^-/- cells; experiment: Clonogenic assay; format: cell-based, mouse; conditions: for survival relative to 0 uM / survival relative to 0 uM, mean of the four experiments: cc POLQ KO; for survival relative to 0 uM: experiments 2023-04-07 and 2023-04-13; for survival relative to 0 uM, mean of the four experiments: last block without head (mean of 4)
Procedure: as §2, with “[…],” for “1000 cells/ well of BRCA2 -/-,”, “[…];” for “PALB2 mut and 500 cells/ well of wildtype pair was plated;”, “[…],” for “600 cells/ well of BRCA2 -/-,”, “[…],” for “500 cells/ well of BRCA2 -/-,”

[3] = 150 cells/well, RTx-161 1.25 uM
[4] = 300 cells/well, RTx-161 1.25 uM
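Throughout, for percent suvival: colony counts relative to DMSO-treated cells set as 100%.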

## CN(C(=O)Oc1c(N2CCN(CCO)C2=O)cc(C(F)(F)F)cc1C(F)(F)F)c1ccc(F)cc1 [RTx-161]
DLD1 BRCA2 -/- cells; DLD1- BRCA2-null, 5 microM, Average of Expt 1-3 (DMSO 14.884)
  Percent of positive nuclei, Average: 48.7855%
DLD1 BRCA2 -/- cells; DLD1- BRCA2-null, 5 microM, single Experiments 1-3
  Percent of positive nuclei (3 or more than 3 g-H2AX foci): 47.2973% and 43.3071% and 55.7522%
DLD1 BRCA2 -/- cells; immunofluorescence and Western blot, versus parental
  DNA damage (γ-H2AX phosphorylation): selectively caused DNA damage
DLD1 Parental cells; Average of Expt 1-3 (DMSO 4.28755)
  Percent of positive nuclei, Average: 10.2071%
DLD1 Parental cells; single Experiments 1-3
  Percent of positive nuclei (3 or more than 3 g-H2AX foci): 11.5942% and 12.5984% and 6.429%
Brca1-WT MEFs; RTX-161 2.5 micro M
  pooled Average (normalized): 86.6767
  Normalized: 94.0299 and 78.7879 and 87.2314
Brca1-WT MEFs; RTX-161 5 micro M
  pooled Average (normalized): 84.2267
  Normalized: 88.0597 and 81.8182 and 82.8237
Brca1-WT MEFs; RTX-161 10 micro M
  pooled Average (normalized): 87.7867
  Normalized: 100 and 72.7273 and 90.6469
Brca1-WT MEFs; RTX-161 20 micro M
  pooled Average (normalized): 78.36
  Normalized: 65.6716 and 68.1818 and 101.237
Brca1-WT MEFs; [3]
  survival relative to 0 uM: 95.92% and 83.78%
Brca1-WT MEFs; 150 cells/well, RTx-161 2.5 uM
  survival relative to 0 uM: 108.16% and 89.19%
Brca1-WT MEFs; 150 cells/well, RTx-161 5 uM
  survival relative to 0 uM: 104.08% and 81.08%
Brca1-WT MEFs; 150 cells/well, RTx-161 10 uM
  survival relative to 0 uM: 102.04% and 78.38%
Brca1-WT MEFs; 150 cells/well, RTx-161 20 uM
  survival relative to 0 uM: 87.76% and 86.49%
Brca1-WT MEFs; [4]
  survival relative to 0 uM: 109.62% and 92.19%
Brca1-WT MEFs; 300 cells/well, RTx-161 2.5 uM
  survival relative to 0 uM: 88.46% and 93.75%
Brca1-WT MEFs; 300 cells/well, RTx-161 5 uM
  survival relative to 0 uM: 92.31% and 106.25%
Brca1-WT MEFs; 300 cells/well, RTx-161 10 uM
  survival relative to 0 uM: 96.15% and 100.00%
Brca1-WT MEFs; 300 cells/well, RTx-161 20 uM
  survival relative to 0 uM: 103.85% and 96.88%
Brca1-WT MEFs; RTx-161 1.25 uM
  survival relative to 0 uM, mean of the four experiments: 95.38%
Brca1-WT MEFs; RTx-161 2.5 uM
  survival relative to 0 uM, mean of the four experiments: 94.89%
Brca1-WT MEFs; RTx-161 5 uM
  survival relative to 0 uM, mean of the four experiments: 95.93%
Brca1-WT MEFs; RTx-161 10 uM
  survival relative to 0 uM, mean of the four experiments: 94.14%
Brca1-WT MEFs; RTx-161 20 uM
  survival relative to 0 uM, mean of the four experiments: 93.74%
Brca1^CC/CC MEFs; RTX-161 2.5 micro M
  pooled Average (normalized): 50.51
  Normalized: 61.5322 and 50 and 40
Brca1^CC/CC MEFs; RTX-161 5 micro M
  Normalized: 48.9756 and 28.3333 and 33.3333
Brca1^CC/CC MEFs; RTX-161 10 micro M
  pooled Average (normalized): 33.4
Brca1^CC/CC MEFs; RTX-161 20 micro M
  pooled Average (normalized): 18.83
Brca1^CC/CC MEFs; RTx-161 1.25 uM
  survival relative to 0 uM: 84.85% and 90.38%
  survival relative to 0 uM, mean of the four experiments: 86.23%
Brca1^CC/CC MEFs; RTx-161 2.5 uM
  survival relative to 0 uM: 72.73% and 53.85%
  survival relative to 0 uM, mean of the four experiments: 67.71%
Brca1^CC/CC MEFs; RTx-161 5 uM
  survival relative to 0 uM: 60.61% and 50.00%
  survival relative to 0 uM, mean of the four experiments: 56.39%
Brca1^CC/CC MEFs; RTx-161 10 uM
  survival relative to 0 uM: 51.52% and 57.69%
  survival relative to 0 uM, mean of the four experiments: 54.03%
Brca1^CC/CC MEFs; RTx-161 20 uM
  survival relative to 0 uM: 39.39% and 48.08%
  survival relative to 0 uM, mean of the four experiments: 47.47%
Brca1^CC/CC MEFs; versus Brca1-WT MEFs
  selective killing of Brca1^cc/cc MEFs: selective killing
[1]; RTX-161 0.5 micro M
  percent suvival: 63.3333% and 80.7018% and 61.1842%
[1]; RTX-161 1 micro M
  percent suvival: 55.8333% and 71.9298% and 46.0526%
[1]; RTX-161 2 micro M
  percent suvival: 43.3333% and 23.3918% and 22.3684%
[2]; [3]
  survival relative to 0 uM: 105.26% and 120.00%
[2]; 150 cells/well, RTx-161 2.5 uM
  survival relative to 0 uM: 73.68% and 115.00%
[2]; 150 cells/well, RTx-161 5 uM
  survival relative to 0 uM: 89.47% and 105.00%
[2]; 150 cells/well, RTx-161 10 uM
  survival relative to 0 uM: 94.74% and 95.00%
[2]; 150 cells/well, RTx-161 20 uM
  survival relative to 0 uM: 73.68% and 90.00%
[2]; [4]
  survival relative to 0 uM: 106.67% and 94.44%
[2]; 300 cells/well, RTx-161 2.5 uM
  survival relative to 0 uM: 83.33%
[2]; 300 cells/well, RTx-161 5 uM
  survival relative to 0 uM: 83.33% and 86.11%
[2]; 300 cells/well, RTx-161 10 uM
  survival relative to 0 uM: 86.67% and 94.44%
[2]; 300 cells/well, RTx-161 20 uM
  survival relative to 0 uM: 80.00% and 83.33%
[2]; RTx-161 1.25 uM
  survival relative to 0 uM, mean of the four experiments: 106.59%
[2]; RTx-161 2.5 uM
  survival relative to 0 uM, mean of the four experiments: 88.84%
[2]; RTx-161 5 uM
  survival relative to 0 uM, mean of the four experiments: 90.98%
[2]; RTx-161 10 uM
  survival relative to 0 uM, mean of the four experiments: 92.71%
[2]; RTx-161 20 uM
  survival relative to 0 uM, mean of the four experiments: 81.75%
[2]; compared to Brca1^CC/CC cells
  sensitivity of Brca1^CC/CC;Polq^-/- cells: resistant
